Some test systems named below: SW-620 colon; TK-10 renal; SF-268 CNS; UO-31 renal; HS 578T breast; RPMI-8226 leukemia; MDA-N; K-562 leukemia; KM12 colon; CCRF-CEM leukemia.
Common to all, as to assay: NCI anticancer screen, dose series, 48 h

The results in this text go back to PubChem BioAssay (NCI).

Molecules are shown by their SMILES.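 The compound was tested at five concentrations on cells cultured in 96-well plates, with a 48-hour exposure period. TGI is the concentration that stops growth completely.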 Where a SMILES comes first, the peptide text is derived from it. [ ]: non-standard residue; d: D form. The star is where a group is joined. Phe(4-NO2) = N[CH](Cc1ccc([N+](=O)[O-])cc1)C(=O)O; Boc = CC(C)(C)OC(=O)*; OtBu = CC(C)(C)O*

With `CCC1(O)CN(CCOC)[C@H]2C[C@@H]1C(=O)c1[nH]c3ccccc3c12` (stereo not given in full), the TGI in the test with SW-620 colon, with TK-10 renal, in the test with SF-268 CNS, with UO-31 renal, with HS 578T breast and in the test with RPMI-8226 leukemia was more than 100 µM throughout. The TGI with MDA-N, with K-562 leukemia, with KM12 colon and in the test on CCRF-CEM leukemia was more than 100 µM throughout.

For the molecule `Cc1nc(C(N)=S)sc1C(=O)CC(=O)C(=O)Nc1cccc(Cl)c1C`, the TGI in the test on SW-620 colon, in the test with TK-10 renal, in the test with SF-268 CNS, with UO-31 renal, with HS 578T breast and in the test on RPMI-8226 leukemia was more than 100 µM in each case. The TGI in the test on MDA-N, in the test on K-562 leukemia, with KM12 colon and in the test on CCRF-CEM leukemia was more than 100 µM throughout.

In the case of `O=C(NCCCCl)c1c(O)c2ccccc2[nH]c1=O`, the TGI in the test with SW-620 colon, in the test on TK-10 renal, in the test on SF-268 CNS, in the test on UO-31 renal, with HS 578T breast and with RPMI-8226 leukemia was more than 100 µM in each case. Besides, the TGI in the test with MDA-N, in the test with K-562 leukemia, in the test with KM12 colon and with CCRF-CEM leukemia was more than 100 µM throughout.

On to `COC(=O)c1ccc(OCc2ccc3nc(-c4ccccc4)c(Cl)nc3c2)cc1`, for which the TGI is more than 100 µM in the test on SW-620 colon; more than 100 µM with TK-10 renal; more than 100 µM in the test with SF-268 CNS; more than 100 µM in the test with UO-31 renal; 99.4 µM in the test with HS 578T breast; more than 100 µM in the test on RPMI-8226 leukemia. Besides, the TGI in the test with MDA-N, in the test on KM12 colon and with CCRF-CEM leukemia was more than 100 µM each time.

`COC1=CC2(C=CC1=O)CCN=c1c(O)c3c(c(O)c12)=NC=N3` (stereo not given): the TGI with SW-620 colon, in the test with TK-10 renal, in the test with SF-268 CNS, in the test with UO-31 renal, in the test on HS 578T breast and in the test on RPMI-8226 leukemia was more than 100 µM in each case. In addition, the TGI with MDA-N, with K-562 leukemia, in the test on KM12 colon and in the test with CCRF-CEM leukemia was more than 100 µM throughout.

As to `COC(=O)C(Cc1ccc([N+](=O)[O-])cc1)NC(=O)C(CC(=O)OC(C)(C)C)NC(=O)OC(C)(C)C` (stereo not given) (Boc-Asp(OtBu)-[Phe(4-NO2)]-OMe; configuration not given here), the TGI with SW-620 colon is more than 100 µM; in the test on TK-10 renal, more than 100 µM; in the test on SF-268 CNS, more than 100 µM; with UO-31 renal, 29.6 µM; in the test on HS 578T breast it was 40.6 µM; in the test with RPMI-8226 leukemia, more than 100 µM. Further, the TGI with MDA-N, in the test with K-562 leukemia, in the test with KM12 colon and with CCRF-CEM leukemia was more than 100 µM in each case.

On to `COC(=O)CNC(=O)/C=C/[C@H](O[Si](C)(C)C(C)(C)C)[C@H](/C=C/C(=O)NCC(=O)OC)O[Si](C)(C)C(C)(C)C`, for which the TGI in the test with SW-620 colon, in the test with TK-10 renal, with SF-268 CNS, with UO-31 renal, in the test with HS 578T breast and with RPMI-8226 leukemia was more than 25 µM throughout. Moreover, the TGI in the test on MDA-N, with K-562 leukemia, in the test on KM12 colon and in the test with CCRF-CEM leukemia was more than 25 µM in each case.

As to `Cc1cnc2[nH]c(-c3ccccc3)cc(=O)c2c1`, the TGI with SW-620 colon is more than 100 µM; with TK-10 renal it was 99.5 µM; with SF-268 CNS, more than 100 µM; in the test on UO-31 renal it was 68 µM; in the test with HS 578T breast, 0.0595 µM; with RPMI-8226 leukemia, more than 8.62 µM. The figures for the TGI in the test with MDA-N, in the test on KM12 colon and in the test on CCRF-CEM leukemia were more than 100 µM, 13.9 µM and 2.79 µM, respectively.

In the case of `O=C(CCCN1CCc2[nH]c3cc(F)ccc3c2C1)c1ccc(F)cc1`, the TGI in the test with SW-620 colon is more than 100 µM; with TK-10 renal, 24.9 µM; in the test on SF-268 CNS, 26.7 µM; in the test on HS 578T breast, 30 µM; in the test on RPMI-8226 leukemia, 27.2 µM; with MDA-N, 29.2 µM. Moreover, the TGI is 22.5 µM in the test with K-562 leukemia, 26.9 µM in the test with KM12 colon and 30.9 µM in the test with CCRF-CEM leukemia.

Regarding `CCOc1cc(C=O)ccc1O`, the TGI with SW-620 colon, in the test with TK-10 renal, with SF-268 CNS, with UO-31 renal, with HS 578T breast and with RPMI-8226 leukemia was more than 100 µM in each case. Further, the TGI with MDA-N, in the test with K-562 leukemia and with KM12 colon was more than 100 µM throughout.

For the molecule `CSc1s[s+]c(SC)c1-c1ccccc1`, the TGI in the test with SW-620 colon came to 34.9 µM; in the test on TK-10 renal it was 32.4 µM; in the test on SF-268 CNS, 43 µM; with UO-31 renal, 46.3 µM; in the test on HS 578T breast, 86.9 µM; with RPMI-8226 leukemia, 56.7 µM. Further, the TGI in the test on MDA-N is 32.7 µM; in the test with K-562 leukemia, 50.3 µM; with KM12 colon it was 33.8 µM; in the test on CCRF-CEM leukemia it was 81.4 µM.

As to `Cc1ccc(C2=Nn3c(nc4sc(-c5ccccc5)cc4c3=O)SC2)cc1`, the TGI in the test with SW-620 colon, in the test with TK-10 renal, with SF-268 CNS, with UO-31 renal, with HS 578T breast and with RPMI-8226 leukemia was more than 100 µM each time. In addition, the TGI in the test on MDA-N, in the test on K-562 leukemia, in the test with KM12 colon and in the test with CCRF-CEM leukemia was more than 100 µM throughout.

Turning to `CCOC(=O)C(Cc1c(-c2[nH]c3ccccc3c2CC(NC(=O)CNC(C)=O)C(=O)OCC)[nH]c2ccccc12)NC(=O)CNC(C)=O` (stereo not given), the TGI with SW-620 colon, in the test on TK-10 renal, in the test with SF-268 CNS, with UO-31 renal, with HS 578T breast and with RPMI-8226 leukemia was more than 100 µM throughout. Also, the TGI in the test on MDA-N, in the test on KM12 colon and in the test with CCRF-CEM leukemia was more than 100 µM each time.
